# Read-outs that look alike come from different tables or passages of the source.
# Experiments:
# S. enterica ATCC 14028 = assay: Broth microdilution MIC and growth inhibition (control bacteria); format: cell-based; details: for MIC: TOUCAN as NA equivalent
# From the text: (§1) Bacteria strains. S. aureus NCTC 12493 (MRSA), S. aureus ATCC 29213 (MSSA), S. aureus ATCC 43300 (MRSA), S. aureus ATCC 1707 (MRSA), S. aureus ATCC 1717 (MRSA), S. aureus ATCC 1747 (MRSA), S. aureus ATCC 1761 (MRSA), S. aureus ATCC 1766 (MRSA), S. aureus ATCC 1768 (MRSA), S. epidermidis ATCC 35984, E. coli ATCC 25922, K. pneumoniae ATCC 13883, P. mirabilis ATCC 25933, S. enterica ATCC 14028 and P. aeruginosa ATCC 10145 strains were used in this study. Bacteria were initially inoculated onto tryptone soy agar with 5% defibrinated sheep blood (Thermo Fisher Scientific, Inc., Waltham, MA, USA) and incubated at 37° C. for 24 hours. Then, single colonies of each strain were transferred to tryptone soy broth (Thermo Fisher Scientific) for the nuclease activity assay or antimicrobial susceptibility testing, respectively.
# (§2) Antimicrobial susceptibility testing. Minimal inhibitory concentrations (MIC) of all nucleoside analogues and TOUCANs against each bacteria strain were determined using broth microdilution method. A single colony obtained from overnight culture on tryptone soy agar with 5% defibrinated sheep blood was inoculated in cation-adjusted Mueller Hinton Broth and adjusted to 10^6 CFU/mL. TOUCANs were prepared in PBS+/+ (treatment) and serial dilutions were made in 96-well polystyrene round bottom microwell plates with 50 μL final volume for each concentration. PBS+/+ was used as untreated control. Next, 50 μL bacteria solutions were added to each well to a final bacteria concentration of 5×10^5 CFU/mL. Plates were incubated at 37° C. in Cytation 1 Cell Imaging Multimode Reader. Growth curves were obtained by measuring optical densities at 600 nm every 10 minutes for 18 hours using Cytation 1 Cell Imaging Multimode Reader. In addition, visual inspection of the plates was carried out after 18 hours and photographs were taken. MICs were defined as the lowest drug concentration in the microwell at which bacterial growth was not visible at the end of the incubation period. Besides MIC determination, specificity of TOUCAN 7mGe was also shown with subcultures on chromogenic media. For this purpose, 5 μL of different concentrations of each strain were inoculated onto CHROM agar Orientation Media (Becton Dickinson) and the bacterial growth of each bacteria strain tested was observed by naked eye after incubation at 37° C. for 24 hours. Finally, photographs of the chromogenic media were taken.
# K. pneumoniae ATCC 13883 = assay: as above; format: cell-based; details: for MIC: TOUCAN as NA equivalent
# From the text: as §1, §2
# P. aeruginosa ATCC 10145 = assay: as above; format: cell-based; details: for MIC: TOUCAN as NA equivalent
# From the text: as §1, §2
# P. mirabilis ATCC 25933 = assay: as above; format: cell-based, Proteus mirabilis; details: for MIC: TOUCAN as NA equivalent
# From the text: as §1, §2
# [1] = Complete blood counts of infected/treated mice; details: for percentage of neutrophils in blood: infected treated mice, after 24 hours, FIG. 7i; for BAS / BAS % / EO / EO % / HCT / HGB / LYM / LYM % / MCH / MCHC / MCV / MON / MON % / NE / NE % / PLT / RBC / RET / RET % / WBC: infected/treated mice, blood after 24 hours, AVG, n = 4; for change of red blood cells (RBCs), hematocrit and hemoglobin (acute blood toxicity): treated mice versus uninfected and placebo groups, FIG. 11
# E. coli ATCC 25922 = assay: Broth microdilution MIC and growth inhibition (control bacteria); format: cell-based, Escherichia coli; details: for MIC: TOUCAN as NA equivalent
# From the text: as §1, §2
Compound,percentage of neutrophils in blood [1],BAS [1],BAS % [1],EO [1],EO % [1],HCT [1],HGB [1],LYM [1],LYM % [1],MCH [1],MCHC [1],MCV [1],MON [1],MON % [1],NE [1],NE % [1],PLT [1],RBC [1],RET [1],RET % [1],also measured
"O=c1[nH]c(=O)n([C@H]2C[C@H](O)[C@@H](CO)O2)cc1F [Floxuridine, reference compound]",30.3%,0.0 10^9/L,0.5%,0.0 10^9/L,1.0%,40.8%,12.8 g/dL,1.1 10^9/L,48.9%,14.8 pg,31.5 g/dL,47.4 fL,0.3 10^9/L,13.5%,0.7 10^9/L,36.1%,599.3 K/μL,8.6e+12 L⁻¹,384.9 K/μL,4.5%,"MIC (S. enterica ATCC 14028; Salmonella enterica, ATCC14028, 18 h, read-out: MIC): 20 µg/mL; MIC (K. pneumoniae ATCC 13883; Klebsiella pneumoniae, ATCC13883, 18 h, read-out: MIC): 20 µg/mL; MIC (P. aeruginosa ATCC 10145; Pseudomonas aeruginosa, ATCC10145, 18 h, read-out: MIC): > 40 µg/mL; MIC (P. mirabilis ATCC 25933; Proteus mirabilis, ATCC25933, 18 h, read-out: MIC): 5 µg/mL; WBC [1]: 2.2 10^9/L; change of red blood cells (RBCs), hematocrit and hemoglobin (acute blood toxicity) [1]: reduction; MIC (E. coli ATCC 25922; Escherichia coli, ATCC25922, 18 h, read-out: MIC): 20 µg/mL"
mU-mU-mU-mU-T-T-Fx [TOUCAN 7mFx],13.8%,0.0 10^9/L,0.3%,0.0 10^9/L,1.3%,44.5%,14.0 g/dL,1.6 10^9/L,68.6%,15.0 pg,31.4 g/dL,47.9 fL,0.4 10^9/L,15.7%,0.3 10^9/L,14.1%,630.0 K/μL,9.3e+12 L⁻¹,257.7 K/μL,2.8%,"MIC (S. enterica ATCC 14028; 18 h): >40 µg/mL; TOUCAN % Growth inhibition (S. enterica ATCC 14028; mean ± SD, n = 3): 10.8 ± 2.1%; MIC (K. pneumoniae ATCC 13883; 18 h): >40 µg/mL; TOUCAN % Growth inhibition (K. pneumoniae ATCC 13883; mean ± SD, n = 3): 0 ± 0.00%; MIC (P. aeruginosa ATCC 10145; 18 h): >40 µg/mL; TOUCAN % Growth inhibition (P. aeruginosa ATCC 10145; mean ± SD, n = 3): 7.2 ± 1.4%; MIC (P. mirabilis ATCC 25933; 18 h): >40 µg/mL; TOUCAN % Growth inhibition (P. mirabilis ATCC 25933; mean ± SD, n = 3): 45.5 ± 0.4%; WBC [1]: 2.4 10^9/L; change of red blood cells (RBCs), hematocrit and hemoglobin (acute blood toxicity) [1]: no difference; MIC (E. coli ATCC 25922; 18 h): >40 µg/mL; TOUCAN % Growth inhibition (E. coli ATCC 25922; mean ± SD, n = 3): 0 ± 0.00%"
